In patent publication US11472807B2, “Purine derivatives for use as medicament and for use in treating neurodegenerative or neuro-inflammatory disorders” (COMMISSARIAT À L'ENERGIE ATOMIQUE ET AUX ENERGIES …, priority 2017, dated 2022):

Legend:
IL-1β = IL-1β mRNA in OHSC (RT-qPCR); format: cell-based, mice; details: 50 μM, 10 days, vs vehicle, P<0.001
Protocol: FIG. 10. Plots illustrating the effect of Aftin-5 on relative mRNA expression levels of interleukin-1-beta (IL-1β; (A)), interleukin-6 (IL-6; (B)), TNF-alpha (TNFα; (C)) and interleukin-10 (IL-10; (D)) in organotypic hippocampal slice cultures (OHSC). OHSC culture media […] were replaced by incubation medium containing Aftin-5 (50 μM; A50) or vehicle (0.1% DMSO; Veh). 10 days later, total mRNA in lysate was isolated and purified, cDNAs were then synthesized from […] of total mRNA. cDNAs were amplified by quantitative RT-PCR and the relative expression of specific genes was normalized to the housekeeping gene HPRT1 (2^−ΔCt). Mann-Whitney tests were performed and ***p<0.001 indicates significant differences between Aftin-5 and control conditions. Data expressed as means+/−SEM from q=3 independent experiments with n=4-6 inserts/condition and 10 slices/insert. […]
The impact of Aftin-5 on gene expression of different biomarkers was determined by measuring mRNA levels of selected BDNF, CREB, PS95, INS Receptor/IGF-1 receptor, IL-1β, IL-6 in OHSC treated chronically with Aftin-5 or in a total brain from mice exposed to Aftin-5 at either 8 or 30 mg/Kg. […] Threshold cycles (Ct) of target gene and cyclophilin A (Ppia−control housekeeping gene) were recorded and gene expression was calculated as 2^−ΔΔCt(ΔΔCt=ΔCttreated−ΔCtcontrol, ΔCt=Cttarget−CtPpia). […]

GSK-3β = GSK-3β activity in organotypic slice cultures from transgenic mice overexpressing phosphorylated Tau; format: cell-based
Source text: Unpredictably, Aftin-5 is shown herein to efficiently promote an attenuation of the phosphorylation of Tau protein (see example 5).

[1] = system: aggregates of β-pleated sheets; assay: Thioflavin-S immunohistochemistry of total brain tissue of treated mice; format: in vivo; details: mice treated during 28 days
Protocol: C57B1 were exposed subcutaneously to Aftin-5 using osmotic minipumps ([…]; Saint-Germain-Nuelles, France). Aftin-5 was dissolved in DMSO:propylene glycol:ethanol (45:45:10). Mice were treated with 1, 3 or 30 mg/Kg for 28 days. Filled pumps were left in saline overnight at 37° C. for priming. Mice were anesthetized with isoflurane (3-4% v/v, 1.5 mL/min) in an induction chamber and maintained under anesthesia through a mask. Mice were shaved on their back, disinfected and an incision made between the scapulae for pump implantation and finally closed with clips. 1% lidocaine gel was applied over the incision for local analgesia. Animals recovered from anesthesia in heated pads and immediately returned to the cages.
Immunohistochemistry assay was conducted with the total brain tissue, from mice treated with Aftin-5 during 28 days, in the presence of Thioflavin-S dye, which binds aggregates of β-pleated sheets.

For `CC[C@H](CO)Nc1nc(N(C)c2ccccc2)c2ncn(C(C)C)c2n1` [Aftin-5], the IL-1β-mRNA synthesis (IL-1β) was “significantly decrease”, the “activity of GSK-3β” value (GSK-3β) was “reduces” and the “aggregates of β-pleated sheets (Thioflavin-S binding)” value [1] was “absence”.
